Test results taken from patent US20150018566A1, “TUBULIN BINDING AGENTS” (priority 2011, published 2015).
Where two headings read alike, the source gives them in different places. Values belong to the compound of their own block, whether it stands above or below them.

How the values were obtained:
[1] = biological target: T1, APN enzyme present on HUVECs (Homo sapiens, UniProt P15144); test: APN cell-based assay, HUVECs
T1 construct: The presence of APN-expres sing cells replaced the step of the addition of the actual APN enzyme; host or cells: HUVECs
T1 sequence (P15144 whole entry): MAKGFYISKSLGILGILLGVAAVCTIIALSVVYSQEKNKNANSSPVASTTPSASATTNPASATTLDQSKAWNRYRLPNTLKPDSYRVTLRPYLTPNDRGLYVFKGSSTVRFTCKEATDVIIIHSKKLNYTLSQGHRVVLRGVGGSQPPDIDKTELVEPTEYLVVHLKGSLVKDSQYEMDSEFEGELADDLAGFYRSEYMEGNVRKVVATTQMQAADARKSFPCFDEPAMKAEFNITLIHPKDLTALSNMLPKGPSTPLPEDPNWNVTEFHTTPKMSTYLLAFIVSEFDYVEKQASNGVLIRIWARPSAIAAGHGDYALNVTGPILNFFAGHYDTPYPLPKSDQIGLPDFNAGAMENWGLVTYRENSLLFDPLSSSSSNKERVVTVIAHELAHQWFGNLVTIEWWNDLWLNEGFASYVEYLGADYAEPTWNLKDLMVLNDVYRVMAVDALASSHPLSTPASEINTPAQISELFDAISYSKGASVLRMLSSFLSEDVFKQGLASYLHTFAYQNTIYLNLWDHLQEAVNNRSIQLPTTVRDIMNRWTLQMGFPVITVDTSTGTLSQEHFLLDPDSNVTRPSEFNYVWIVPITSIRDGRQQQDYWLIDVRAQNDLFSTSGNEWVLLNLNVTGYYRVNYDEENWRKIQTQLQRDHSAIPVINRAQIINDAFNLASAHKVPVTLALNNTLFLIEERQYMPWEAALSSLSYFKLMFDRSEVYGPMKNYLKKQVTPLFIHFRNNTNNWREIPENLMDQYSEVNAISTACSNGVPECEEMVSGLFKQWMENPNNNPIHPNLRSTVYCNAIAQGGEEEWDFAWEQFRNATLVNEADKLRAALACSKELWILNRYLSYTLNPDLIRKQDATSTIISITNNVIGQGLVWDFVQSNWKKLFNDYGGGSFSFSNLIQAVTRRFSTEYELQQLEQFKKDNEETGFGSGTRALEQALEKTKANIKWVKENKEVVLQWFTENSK
Procedure: (§1) To further investigate the APN inhibitory effect of the hybrids the APN cell-based assay was carried out as previously described using both HUVECs and PC-3 cells. In order to exclude any possible cytotoxic effects of the tubulin component of the hybrids that could interfere with the outcome of the results, it was necessary to perform cytotoxicity assays. For this purpose, the MTT assay was used as previously described; however the duration of compounds' incubation was modified to 2 h in order to correlate with the incubation period of APN cell-based assay. The presence of APN-expres sing cells replaced the step of the addition of the actual APN enzyme and the rest of the protocol remained the same. The release of the resulting product p-nitroaniline was measured spectrophotometrically at 405 nm and the level of APN present […] the cells was directly related to the intensity of the colour absorbance.
(§2) HUVECs/PC-3 cells' surface APN activity was estimated spectrophotometrically using L-leucine-p-nitroanilide as an APN substrate. 1×10^6 cells/ml ([…]) were seeded in 96-well plate and incubated overnight at 37° C. The following day cell medium was replaced by various concentrations of compounds diluted in HEPES buffer (100 μl). […] L-leucine-p-nitroanilide (50 μl) was added to each well to give a final concentration of 2 mM. Following 2 h incubation at 37° C., absorbance was measured at 405 nm using a FLUOstar OPTIMA microplate reader (BMG labtech). Each compound concentration was tested in quadruplicate and each experiment was performed at three independent times. The percentage APN inhibition was determined using the formula below and where appropriate, IC50 values were obtained.
(§3) % APN inhibition=100−[(mean Abs of test compound)/(mean Abs of control)]*100

[2] = biological target: T2, APN enzyme present on PC-3 cells (Homo sapiens, UniProt P15144); test: APN cell-based assay, PC-3 cells
T2 construct: PC-3 cell line was selected due to its high expression of APN; host or cells: PC-3
T2 sequence (P15144 whole entry): as above
Procedure: as §1, §2, §3

HUVECs [3] = test: MTT cytotoxicity assay, HUVECs; type: cell-based, human
Procedure: as §1
Cell growth inhibition was assessed using the MTT assay. 5×10^4 cells/ml HUVECs or PC-3 cells (180 μl) were inoculated into each well of a 96-well plate and incubated overnight at 37° C. Compounds or control solutions (20 μl) were added into each well and the plates were incubated for 72 h. CA-4 was used as a positive control. […] The percentage growth inhibition was determined using the formula below and the results were expressed in terms of IC50 values.

HUVECs [4] = test: Cell cycle analysis, G2/M phase, PI staining and flow cytometry; type: cell-based, human; conditions: 24 h treatment
From the text: Proliferating cells are constantly dividing to produce daughter cells. The most obvious cellular structure that requires duplication and division is the cell nucleus where DNA, cell's genetic material is present. During a cell cycle there are changes in the DNA content and thus there are different cycle stages including G0, G1, S, G2 and M (mitosis). The G0 stage of the cycle is a subset of G1 where the cells are quiescent and have limited cellular functions. Cells remain in the G1 portion of the cycle when are not in a process of cell division and thus G1 phase is the most predominant phase of the cycle appearing as the largest peak. In addition, during the G1 phase synthesis of many RNA and protein molecules is taking place which are necessary for DNA synthesis. G2 phase is a period for repair of any damaged DNA and for reorganisation of the DNA structure before entering the M phase. Cell cycle abnormalities could be a sign of cell damage, for example DNA damage causes interruption of the cell cycle at certain checkpoints such as the spindle assembly checkpoint (SAC) to prevent carcinogenesis.
The mitotic spindle is composed of microtubules which together with regulatory proteins assist in the activity of properly segregating replicated chromosomes. It is well established that treatment of cells with tubulin polymerization inhibitors causes a G2/M phase arrest of the cell cycle and thus an observable increased DNA content at that stage.
For this reason, cell cycle analysis was carried out using propidium iodide (PI) staining. The first protocol was presented by Krishan in 1975 [6]. The first step involves permeabilisation of the cells' plasma membrane by fixating the cells in ethanol in order for the fluorescent DNA dye to pass through the membrane and into the cells. Ribonuclease A (RNase A) was used to eliminate any RNA present inside the cells in order to avoid creating artefacts that could affect the results. PI was used for the staining of the cells' DNA content; however other fluorescent dyes can be used instead, such as DAPI and Hoechst 33342.
Flow cytometry was used to quantify the DNA contents of the cells. This is a technique which was first introduced by Fulwyler which examines and counts cells or other microscopic particles by suspending them in a stream of fluid and passing them by an electronic detection apparatus. Cells had to pass through the flow cytometer's laser where a fluorescence pulse was generated and it correlated with the amount of DNA dye present inside the cells. […]
Cell cycle arrest at the G2/M phase was examined by PI-staining. […] Cell suspension was kept at 4° C. until ready for analysis. […] Samples were analyzed using a Beckman Coulter (Dako) 2-laser CyAn ADP analyser provided by the Department of Biochemistry, TCD. […]

tubulin = biological target: T3, tubulin (Sus scrofa, UniProt P02550+P02554); test: Tubulin assembly assay (tubulin binding); type: biochemical, porcine
T3 construct: The procedure used is modified from Shelanski et al; from tissue
T3 sequence (P02550 whole entry): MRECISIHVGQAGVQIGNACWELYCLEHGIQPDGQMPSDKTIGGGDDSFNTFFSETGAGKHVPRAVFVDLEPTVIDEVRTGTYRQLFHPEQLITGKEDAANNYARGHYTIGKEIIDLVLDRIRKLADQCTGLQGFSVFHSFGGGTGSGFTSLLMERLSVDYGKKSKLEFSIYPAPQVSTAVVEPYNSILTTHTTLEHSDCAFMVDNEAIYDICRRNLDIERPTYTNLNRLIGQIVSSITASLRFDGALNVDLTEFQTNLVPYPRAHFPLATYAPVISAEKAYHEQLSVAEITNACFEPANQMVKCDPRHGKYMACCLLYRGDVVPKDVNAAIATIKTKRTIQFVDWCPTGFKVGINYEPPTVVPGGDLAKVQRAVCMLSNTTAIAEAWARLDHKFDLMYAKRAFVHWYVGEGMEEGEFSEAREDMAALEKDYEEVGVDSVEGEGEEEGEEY
T3 sequence (P02554 whole entry): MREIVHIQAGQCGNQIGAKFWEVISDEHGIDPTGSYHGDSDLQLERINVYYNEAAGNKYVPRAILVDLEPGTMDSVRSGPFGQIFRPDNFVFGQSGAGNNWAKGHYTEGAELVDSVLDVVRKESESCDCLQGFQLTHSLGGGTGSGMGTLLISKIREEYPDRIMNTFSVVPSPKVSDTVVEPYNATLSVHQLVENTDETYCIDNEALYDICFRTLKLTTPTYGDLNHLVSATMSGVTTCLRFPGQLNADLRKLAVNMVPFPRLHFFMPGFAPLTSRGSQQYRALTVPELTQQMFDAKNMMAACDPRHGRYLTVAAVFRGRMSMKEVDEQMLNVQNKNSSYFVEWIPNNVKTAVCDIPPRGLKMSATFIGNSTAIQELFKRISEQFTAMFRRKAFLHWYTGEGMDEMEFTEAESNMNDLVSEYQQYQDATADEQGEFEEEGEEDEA

[5] = HUVEC, read-out: percentage APN inhibition

SMILES: COc1ccc(C2=CC(=O)CCc3c2cc(OC)c(OC)c3OC)cc1OC(=O)C(CC(C)C)NC(=O)C(O)C(N)Cc1ccccc1.Cl (centres unmarked) [Compound 44]
inhibition at 0.1 µM [1, 5]: 31.9 ± 19%
inhibition at 1 µM [1, 5]: 52.6 ± 14.7%
inhibition at 5 µM [1, 5]: 64 ± 16.1%
percentage APN inhibition ([2]; 1 μM, PC-3 cells, 2 h incubation): 31.3±8.9%
percentage APN inhibition ([2]; 5 μM, PC-3 cells, 2 h incubation): 51.7±8.5%
percentage APN inhibition ([2]; 10 μM, PC-3 cells, 2 h incubation): 55.7±9.8%
percentage APN inhibition ([2]; 20 μM, PC-3 cells, 2 h incubation): 71.4±7.5%
inhibition at 1 µM ([2]; PC-3, read-out: percentage APN inhibition, 1 μM, PC-3 cells, 2 h incubation): 27.8 ± 2.1%
inhibition at 5 µM ([2]; PC-3, read-out: percentage APN inhibition, 5 μM, PC-3 cells, 2 h incubation): 44.6 ± 7.3%
inhibition at 10 µM ([2]; PC-3, read-out: percentage APN inhibition, 10 μM, PC-3 cells, 2 h incubation): 63.7 ± 7.68%
inhibition at 20 µM ([2]; PC-3, read-out: percentage APN inhibition, 20 μM, PC-3 cells, 2 h incubation): 53.4 ± 16.1%
APN inhibition relative to bestatin ([2]; PC-3 cells): 2 fold

inhibition at 0.1 µM ([1]; HUVEC, 0.1 μM, HUVECs, 2 h incubation, read-out: percentage APN inhibition): 18.1 ± 2.9%
inhibition at 0.5 µM ([1]; HUVEC, 0.5 μM, HUVECs, 2 h incubation, read-out: percentage APN inhibition): 21.6 ± 2.2%
APN inhibition relative to bestatin ([1]; HUVECs): superior activity to that of bestatin
inhibition at 1 µM ([2]; 1 μM, PC-3 cells, 2 h incubation, read-out: percentage APN inhibition): 47.9 ± 1.23%
inhibition at 5 µM ([2]; 5 μM, PC-3 cells, 2 h incubation, read-out: percentage APN inhibition): 51.7 ± 1.38%
inhibition at 10 µM ([2]; 10 μM, PC-3 cells, 2 h incubation, read-out: percentage APN inhibition): 51.9 ± 3.89%
inhibition at 20 µM ([2]; 20 μM, PC-3 cells, 2 h incubation, read-out: percentage APN inhibition): 56.5 ± 3.13%
SMILES: COc1ccc(C2=CC(=O)COc3c2cc(OC)c(OC)c3OC)cc1OC(=O)C(CC(C)C)NC(=O)C(O)C(N)Cc1ccccc1.Cl (centres unmarked) [Compound 45, 2-methoxy-5-(7,8,9-trimethoxy-3-oxo-2H-1-benzoxepin-5-yl)phenyl 2-(3-amino-2-hydroxy-4-phenylbutanamido)-4-methylpentanoate]
cytotoxic effect on HUVECs (HUVECs [3]): potent cytotoxic effect
APN inhibition relative to bestatin ([2]; PC-3 cells): significantly more potent APN inhibitor than bestatin

SMILES: COc1ccc(C2=CC(=O)CCc3c2cc(OC)c(OC)c3OC)cc1N [Compound 28, 2-methoxy-5-(2,3,4-trimethoxy-7-oxo-6,7-dihydro-5H-benzo[7]annulen-9-yl)benzenaminium chloride]
percentage of cells in the G2/M phase (HUVECs [4]; 0.5 μM): 81.25±0.6%
percentage of cells in the G2/M phase (HUVECs [4]; 1 μM): 76.07±4.82%

SMILES: COc1ccc(C2=CC(=O)CCc3c2cc(OC)c(OC)c3OC)cc1O [Compound 1, (Z)-8,9-dihydro-5-(3-hydroxy-4-methoxyphenyl)-1,2,3-trimethoxybenzo[7]annulen-7-one]
IC50 (tubulin): 1050 nM
percentage of cells in the G2/M phase (HUVECs [4]; 0.5 μM): 86.3±2.3%
percentage of cells in the G2/M phase (HUVECs [4]; 1 μM): 79.35±1.7%
